Measurements reported in publication PMC5878144 (Journal of controlled release : official journal of the …, 2018).
Like-named read-outs stand apart in the source and are kept apart here. Values belong to the compound of their own block, whether it stands above or below them.

What was measured:
[1] = rat, in vivo; cited from earlier work
[2] = Equilibrium dialysis of DcNP-associated versus free drug; assay type: physicochemical; conditions: TLC-ART101, equilibrium dialysis, 6-8 kDa cut-off membrane
[3] = cited from earlier work
[4] = Free ARV compartmental models; assay type: in vivo, Macaca nemestrina; conditions: for CL/F: calculated from population PK parameters; for half-life / k el / Vd/F: male, monkey, sc
[5] = assay type: in vivo, Macaca nemestrina
in vivo = conditions: macaque, sc
[6] = TLC-ART101 mechanism-based pharmacokinetic; conditions: for k21, lymphatic entry rate constant, fast pathway / k31, lymphatic entry rate constant, intermediate pathway / k41, lymphatic entry rate constant, slow pathway / tlag2, lymphatic transit lag time, intermediate pathway / tlag1, lymphatic transit lag time, fast pathway / V5_DcNP, apparent volume of distribution of DcNP-associated ARV / k75, rate constant for release of free ARV from DcNPs in plasma / tlag3, lymphatic transit lag time, slow pathway: TLC-ART101; for k21, lymphatic entry rate constant, fast pathway / k31, lymphatic entry rate constant, intermediate pathway / k41, lymphatic entry rate constant, slow pathway: fixed after manual adjustment
[7] = Free formulation, parameter value (%CV)
[8] = Free formulation, single SC dose, macaques, geometric mean (%CV), N=3
[9] = TLC-ART101, single SC dose, macaques, geometric mean (%CV), N=4
[10] = parameter value (%CV), listed as TLC-ART101 Ritonavir
[11] = TLC-ART101 model, free submodel, parameter value (%CV)
[12] = parameter value (%CV), listed as TLC-ART101 Tenofovir
[13] = TLC-ART101 model, free submodel

SMILES: COc1cccc2c1C(=O)c1c(O)c3c(c(O)c1C2=O)C[C@@](O)(C(=O)CO)C[C@@H]3O[C@H]1C[C@H](N)[C@H](O)[C@H](C)O1 [doxorubicin]
% of SC dose recovered in the blood [1]: 64-74% | % of SC dose recovered in the lymph [1]: 0.063-2%

SMILES: CN(Cc1cnc2nc(N)nc(N)c2n1)c1ccc(C(=O)N[C@@H](CCC(=O)O)C(=O)O)cc1 [methotrexate]
% of SC dose recovered in the blood [1]: 64-74% | % of SC dose recovered in the lymph [1]: 0.063-2%

mean fraction of DcNP-associated drug [2]: 92.2% | CL/F ([4]; Free formulation, listed as Free Lopinavir): 4.24 L/[hr•kg] | CL/F ([4]; Free formulation, listed as LPV): ~4 L/[hr•kg] | k21, absorption rate constant [4, 7]: 0.7120 (20) 1/hr | half-life ([4]; plasma): 8.85 h | k el ([4]; plasma): 2.18e-05 s⁻¹ | CL/F, apparent total clearance [5, 8]: 4.64 (14) L/[hr•kg] | Terminal t1/2 ([5]; Free formulation, single SC dose, macaques, geometric mean (%CV), N=3, listed as Lopinavir (LPV)): 8.65 (28) hr | CL/F, apparent total clearance [5, 9]: 0.85 (85) L/[hr•kg] | AUC(0-t) ([5]; male, monkey, plasma, sc): 4350 ng·h/mL
SMILES: Cc1cccc(C)c1OCC(=O)N[C@@H](Cc1ccccc1)[C@@H](O)C[C@H](Cc1ccccc1)NC(=O)[C@H](C(C)C)N1CCCNC1=O [Lopinavir]
Terminal t1/2 ([3]; monkey, in vivo, sc): 476.94 (173) hr

Kp (in vivo): 7.4 | k21, lymphatic entry rate constant, fast pathway [6]: 0.2361 (-) 1/hr | k31, lymphatic entry rate constant, intermediate pathway [6]: 0.1881 (-) 1/hr | k41, lymphatic entry rate constant, slow pathway [6]: 0.0198 (-) 1/hr | tlag2, lymphatic transit lag time, intermediate pathway ([6]; parameter value (%CV)): 38.83 (13) hr | tlag1, lymphatic transit lag time, fast pathway ([6]; parameter value (%CV), listed as RTV): ~2 h | V5_DcNP, apparent volume of distribution of DcNP-associated ARV [6, 10]: 10.09 (27) L/kg | k75, rate constant for release of free ARV from DcNPs in plasma [6, 10]: 0.4336 (5) 1/hr | tlag1, lymphatic transit lag time, fast pathway [6, 10]: 2.13 (51) hr | tlag3, lymphatic transit lag time, slow pathway [6, 10]: 181.87 (11) hr | V7_Free [6, 11]: 67.94 (3) L/kg | k07, clearance rate constant of free ARV from central compartment [6, 11]: 0.0962 (4) 1/hr | mean fraction of DcNP-associated drug [2]: 91.1% | CL/F ([4]; Free formulation, listed as Free Ritonavir): 3.90 L/[hr•kg] | CL/F ([4]; Free formulation, listed as RTV): ~4 L/[hr•kg] | k21, absorption rate constant [4, 7]: 0.6242 (29) 1/hr | Vd/F ([4]; plasma): 42.4 L/kg | half-life ([4]; plasma): 7.54 h | k el ([4]; plasma): 2.55e-05 s⁻¹ | CL/F, apparent total clearance [5, 8]: 4.23 (15) L/[hr•kg] | Terminal t1/2 ([5]; Free formulation, single SC dose, macaques, geometric mean (%CV), N=3, listed as Ritonavir (RTV)): 7.99 (38) hr | CL/F, apparent total clearance [5, 9]: 1.43 (56) L/[hr•kg] | AUC(0-t) ([5]; male, monkey, plasma, sc): 1370 ng·h/mL
SMILES: CC(C)c1nc(CN(C)C(=O)N[C@H](C(=O)N[C@@H](Cc2ccccc2)C[C@H](O)[C@H](Cc2ccccc2)NC(=O)OCc2cncs2)C(C)C)cs1 [Ritonavir]
AUC0-336h, area under the plasma drug concentration-time curve [3, 9]: 4.80 (57) hr•μg/mL | Terminal t1/2 [3, 9]: 44.06 (46) hr

SMILES: C[C@H](Cn1cnc2c(N)ncnc21)OCP(=O)(O)O [Tenofovir]
Kp (in vivo): 3.01 | k21, lymphatic entry rate constant, fast pathway [6]: 0.1300 (-) 1/hr | k31, lymphatic entry rate constant, intermediate pathway [6]: 0.1588 (-) 1/hr | k41, lymphatic entry rate constant, slow pathway [6]: 0.1779 (-) 1/hr | V5_DcNP, apparent volume of distribution of DcNP-associated ARV ([6]; parameter value (%CV)): 0.17 (22) L/kg | tlag2, lymphatic transit lag time, intermediate pathway ([6]; parameter value (%CV)): 24.04 (19) hr | tlag1, lymphatic transit lag time, fast pathway ([6]; parameter value (%CV), listed as TFV): 0.1 h | k75, rate constant for release of free ARV from DcNPs in plasma [6, 12]: 0.0164 (15) 1/hr | tlag1, lymphatic transit lag time, fast pathway [6, 12]: 0.10 (-) hr | tlag3, lymphatic transit lag time, slow pathway [6, 12]: 122.06 (3) hr | k76, absorption rate constant of free ARV from SC site [6, 13]: 1.4201 (-) 1/hr | k87 [6, 13]: 0.0298 (-) 1/hr | V7_Free [6, 11]: 1.66 (18) L/kg | k07, clearance rate constant of free ARV from central compartment [6, 11]: 0.5824 (2) 1/hr | k78 [6, 11]: 0.0738 (0) 1/hr | mean fraction of DcNP-associated drug [2]: 11.2% | Terminal t1/2 [3, 9]: 65.33 (11) hr | AUC0-336h, area under the plasma drug concentration-time curve ([3]; in vivo, sc): 416.55 (15) hr•μg/mL | k23, peripheral to central exchange rate constant ([4]; Free formulation, 2CM): 0.0738 (-) 1/hr | Vβ/F ([4]; Free formulation, 2CM, secondary parameter): 8.65 L/kg | k32, central to peripheral exchange rate constant ([4]; Free formulation, 2CM, parameter value (%CV)): 0.0298 (0) 1/hr | CL/F ([4]; Free formulation): 0.60 L/[hr•kg] | k21, absorption rate constant [4, 7]: 2.3423 (38) 1/hr | k el ([4]; in vivo): 0.000164 s⁻¹ | Vd/F ([4]; in vivo, 10.6 mg/kg): 1.44 L/kg | CL/F, apparent total clearance [5, 8]: 0.72 (4) L/[hr•kg] | MBRT0-24h, mean body residence time [5, 8]: 2.61 (12) hr | CL/F, apparent total clearance [5, 9]: 0.02 (15) L/[hr•kg] | MBRT0-336h, mean body residence time [5, 9]: 102.68 (7) hr | MBRT0-24h fold shorter than those of free LPV and RTV ([5]; free formulation): ~5 fold | plasma level as % of peak ([5]; free formulation, by 10 hr): ~1% | AUC(0-t) ([5]; male, monkey, plasma, sc): 14400 ng·h/mL | Tmax ([5]; male, monkey, plasma, sc): ~1 h | half-life ([5]; male, monkey, plasma, sc, Terminal t1/2, Free formulation, single SC dose, macaques, geometric mean (%CV), N=3): 8.01 h
